Experimental data reported in patent publication US7745636B2, “Hepatitis C virus inhibitors” (Bristol-Myers Squibb Company, priority 2006, dated 2010).

System: HCV 1b-377-neo replicon cells
Assay: HCV Replicon assay, HCV 1b-377-neo replicon cells
Format: cell-based, HCV 1b genotype
Details: Hepatitis C virus, Table 2, read-out: Range (EC50 against HCV 1b)
Method: An HCV Replicon assay was utilized in the present disclosure, and was prepared, conducted and validated as described in commonly owned PCT/US2006/022197 and in O'Boyle et. al. Antimicrob Agents Chemother. 2005 April; 49(4):1346-53.
HCV 1b-377-neo replicon cells were used to test the currently described compound series as well as cells resistant to compound A due to a Y2065H mutation in NS5A (described in application PCT/US2006/022197). The compounds tested were determined to have more than 10-fold less inhibitory activity on cells resistant to compound A than wild-type cells indicating a related mechanism of action between the two compound series. Thus, the compounds of the present disclosure can be effective to inhibit the function of the HCV NS5A protein and are understood to be as effective in combinations as previously described in application PCT/US2006/022197 and commonly owned WO/O4014852. Further, the compounds of the present disclosure can be effective against the HCV 1b genotype. It should also be understood that the compounds of the present disclosure can inhibit multiple genotypes of HCV. […] In one embodiment compounds of the present disclosure are active against the 1a, 1b, 2a, 2b, 3a, 4a, and 5a genotypes.

SMILES	EC50 [nM]
COC(=O)N[C@@H](C(=O)N1CCC[C@H]1c1ncc(-c2ccc(-c3ccc(-c4cnc([C@@H]5CCCN5C(=O)[C@H](NC(=O)OC)c5ccccc5)[nH]4)cn3)cc2)[nH]1)c1ccccc1 [Example 134, methyl ((1R)-2-((2S)-2-(5-(6-(4-(2-((2S)-1-((2R)-2-((methoxycarbonyl)amino)-2-phenylacetyl)-2-pyrrolidinyl)-1H-imidazol-5-yl)phenyl)-3-pyridinyl)-1H-imidazol-2-yl)-1-pyrrolidinyl)-2-oxo-1-phenylethyl)carbamate]	0.001 to 0.999
CO[C@@H](C(=O)N1CCC[C@H]1c1ncc(-c2ccc(-c3ccc(-c4cnc([C@@H]5CCCN5C(=O)[C@H](OC)c5ccccc5)[nH]4)cn3)cc2)[nH]1)c1ccccc1 [Example 135, 5-(2-((2S)-1-((2R)-2-methoxy-2-phenylacetyl)-2-pyrrolidinyl)-1H-imidazol-5-yl)-2-(4-(2-((2S)-1-((2R)-2-methoxy-2-phenylacetyl)-2-pyrrolidinyl)-1H-imidazol-5-yl)phenyl)pyridine]	0.001 to 0.999
Cc1cc(-c2cnc([C@@H]3CCCN3C(=O)[C@@H](c3ccccc3)N(C)C)[nH]2)ccc1-c1ccc(-c2cnc([C@@H]3CCCN3C(=O)[C@@H](c3ccccc3)N(C)C)[nH]2)cn1 [Example 136, (1R)-2-((2S)-2-(5-(6-(4-(2-((2S)-1-((2R)-2-(dimethylamino)-2-phenylacetyl)-2-pyrrolidinyl)-1H-imidazol-5-yl)-2-methylphenyl)-3-pyridinyl)-1H-imidazol-2-yl)-1-pyrrolidinyl)-N,N-dimethyl-2-oxo-1-phenylethanamine]	0.001 to 0.999
COC(=O)N[C@@H](C(=O)N1CCC[C@H]1c1ncc(-c2ccc(-c3ccc(-c4cnc([C@@H]5CCCN5C(=O)[C@H](NC(=O)OC)c5ccccc5)[nH]4)cc3C)nc2)[nH]1)c1ccccc1 [Example 138, methyl((1R)-2-((2S)-2-(5-(6-(4-(2-((2S)-1-((2R)-2-((methoxycarbonyl)amino)-2-phenylacetyl)-2-pyrrolidinyl)-1H-imidazol-5-yl)-2-methylphenyl)-3-pyridinyl)-1H-imidazol-2-yl)-1-pyrrolidinyl)-2-oxo-1-phenylethyl)carbamate]	0.001 to 0.999
CC(=O)N[C@@H](C(=O)N1CCC[C@H]1c1ncc(-c2ccc(-c3ccc(-c4cnc([C@@H]5CCCN5C(=O)[C@H](NC(C)=O)c5ccccc5)[nH]4)cn3)cc2)[nH]1)c1ccccc1 [Example 139, N-((1R)-2-((2S)-2-(5-(6-(4-(2-((2S)-1-((2R)-2-acetamido-2-phenylacetyl)-2-pyrrolidinyl)-1H-imidazol-5-yl)phenyl)-3-pyridinyl)-1H-imidazol-2-yl)-1-pyrrolidinyl)-2-oxo-1-phenylethyl)acetamide]	0.001 to 0.999
COC(=O)N[C@@H](C(=O)N1CCC[C@H]1c1ncc(-c2ccc(-c3ccc(-c4cnc([C@@H]5CCCN5C(=O)[C@@H](c5ccccc5)N(C)C)[nH]4)cn3)cc2)[nH]1)c1ccccc1 [Example 140, methyl((1R)-2-((2S)-2-(5-(4-(5-(2-((2S)-1-((2R)-2-(dimethylamino)-2-phenylacetyl)-2-pyrrolidinyl)-1H-imidazol-5-yl)-2-pyridinyl)phenyl)-1H-imidazol-2-yl)-1-pyrrolidinyl)-2-oxo-1-phenylethyl)carbamate]	0.001 to 0.999
COC(=O)N[C@@H](C(=O)N1CCC[C@H]1c1ncc(-c2ccc(-c3ccc(-c4cnc([C@@H]5CCCN5C(=O)[C@H]5CCCO5)[nH]4)cn3)cc2)[nH]1)c1ccccc1 [Example 141, methyl ((1R)-2-oxo-1-phenyl-2-((2S)-2-(5-(4-(5-(2-((2S)-1-((2R)-tetrahydro-2-furanylcarbonyl)-2-pyrrolidinyl)-1H-imidazol-5-yl)-2-pyridinyl)phenyl)-1H-imidazol-2-yl)-1-pyrrolidinyl)ethyl)carbamate]	0.001 to 0.999
COC(=O)N[C@@H](C(=O)N1CCC[C@H]1c1ncc(-c2ccc(-c3ccc(-c4cnc([C@@H]5CCCN5C(=O)C5CCN(C)CC5)[nH]4)cn3)cc2)[nH]1)c1ccccc1 [Example 142, methyl ((1R)-2-((2S)-2-(5-(4-(5-(2-((2S)-1-((1-methyl-4-piperidinyl)carbonyl)-2-pyrrolidinyl)-1H-imidazol-5-yl)-2-pyridinyl)phenyl)-1H-imidazol-2-yl)-1-pyrrolidinyl)-2-oxo-1-phenylethyl)carbamate]	1 to 99
COC(=O)N[C@@H](C(=O)N1CCC[C@H]1c1ncc(-c2ccc(-c3ccc(-c4cnc([C@@H]5CCCN5C(=O)Cc5cccnc5)[nH]4)cn3)cc2)[nH]1)c1ccccc1 [Example 143, methyl ((1R)-2-oxo-1-phenyl-2-((2S)-2-(5-(4-(5-(2-((2S)-1-(3-pyridinylacetyl)-2-pyrrolidinyl)-1H-imidazol-5-yl)-2-pyridinyl)phenyl)-1H-imidazol-2-yl)-1-pyrrolidinyl)ethyl)carbamate]	0.001 to 0.999
COC(=O)N[C@@H](C(=O)N1CCC[C@H]1c1ncc(-c2ccc(-c3ccc(-c4cnc([C@@H]5CCCN5C(=O)N5CCOCC5)[nH]4)cn3)cc2)[nH]1)c1ccccc1 [Example 144, methyl((1R)-2-((2S)-2-(5-(4-(5-(2-((2S)-1-(4-morpholinylcarbonyl)-2-pyrrolidinyl)-1H-imidazol-5-yl)-2-pyridinyl)phenyl)-1H-imidazol-2-yl)-1-pyrrolidinyl)-2-oxo-1-phenylethyl)carbamate]	0.001 to 0.999
COC(=O)N[C@@H](C(=O)N1CCC[C@H]1c1ncc(-c2ccc(-c3ccc(-c4cnc([C@@H]5CCCN5C(=O)[C@H](NC(=O)OC)c5ccccc5)[nH]4)cn3)nc2)[nH]1)c1ccccc1 [Example 145, dimethyl(2,2′-bipyridine-5,5′-diylbis(1H-imidazole-5,2-diyl(2S)-2,1-pyrrolidinediyl((1R)-2-oxo-1-phenyl-2,1-ethanediyl)))biscarbamate]	0.001 to 0.999
CN(C)[C@@H](C(=O)N1CCC[C@H]1c1ncc(-c2ccc(-c3ccc(-c4cnc([C@@H]5CCCN5C(=O)[C@@H](c5ccccc5)N(C)C)[nH]4)nc3)cc2)[nH]1)c1ccccc1 [Example 146, (1R)-2-((2S)-2-(5-(5-(4-(2-((2S)-1-((2R)-2-(dimethylamino)-2-phenylacetyl)-2-pyrrolidinyl)-1H-imidazol-5-yl)phenyl)-2-pyridinyl)-1H-imidazol-2-yl)-1-pyrrolidinyl)-N,N-dimethyl-2-oxo-1-phenylethanamine]	0.001 to 0.999
COC(=O)N[C@@H](C(=O)N1CCC[C@H]1c1ncc(-c2ccc(-c3ccc(-c4cnc([C@@H]5CCCN5C(=O)[C@H](NC(=O)OC)c5ccccc5)[nH]4)nc3)cc2)[nH]1)c1ccccc1 [Example 147, methyl((1R)-2-((2S)-2-(5-(5-(4-(2-((2S)-1-((2R)-2-((methoxycarbonyl)amino)-2-phenylacetyl)-2-pyrrolidinyl)-1H-imidazol-5-yl)phenyl)-2-pyridinyl)-1H-imidazol-2-yl)-1-pyrrolidinyl)-2-oxo-1-phenylethyl)carbamate]	0.001 to 0.999
CN(C)[C@@H](C(=O)N1CSC[C@H]1c1ncc(-c2ccc(-c3ccc(-c4cnc([C@@H]5CSCN5C(=O)[C@@H](c5ccccc5)N(C)C)[nH]4)cc3)cc2)[nH]1)c1ccccc1 [Example 148, (1R,1′R)-2,2′-(4,4′-biphenyldiylbis(1H-imidazole-5,2-diyl(4R)-1,3-thiazolidine-4,3-diyl))bis(N,N-dimethyl-2-oxo-1-phenylethanamine)]	1 to 99
CN(C)[C@@H](C(=O)N1CCC[C@H]1c1ncc(-c2ccc(-c3ncc(-c4cnc([C@@H]5CCCN5C(=O)[C@@H](c5ccccc5)N(C)C)[nH]4)cn3)cc2)[nH]1)c1ccccc1 [Example 152j-1, (1R)-2-((2S)-2-(5-(2-(4-(2-((2S)-1-((2R)-2-(dimethylamino)-2-phenylacetyl)-2-pyrrolidinyl)-1H-imidazol-5-yl)phenyl)-5-pyrimidinyl)-1H-imidazol-2-yl)-1-pyrrolidinyl)-N,N-dimethyl-2-oxo-1-phenylethanamine]	1 to 99
COC(=O)N[C@@H](C(=O)N1CCC[C@H]1c1ncc(-c2ccc(-c3ncc(-c4cnc([C@@H]5CCCN5C(=O)[C@H](NC(=O)OC)c5ccccc5)[nH]4)cn3)cc2)[nH]1)c1ccccc1 [Example 152j-2, methyl ((1R)-2-((2S)-2-(5-(2-(4-(2-((2S)-1-((2R)-2-((methoxycarbonyl)amino)-2-phenylacetyl)-2-pyrrolidinyl)-1H-imidazol-5-yl)phenyl)-5-pyrimidinyl)-1H-imidazol-2-yl)-1-pyrrolidinyl)-2-oxo-1-phenylethyl)carbamate]	0.001 to 0.999
COC(=O)N[C@@H](C(=O)N1CCC[C@H]1c1ncc(-c2ccc(-c3ncc(-c4cnc([C@@H]5CCCN5C(=O)Cc5cccnc5)[nH]4)cn3)cc2)[nH]1)c1ccccc1 [Example 152j-3, methyl ((1R)-2-oxo-1-phenyl-2-((2S)-2-(5-(4-(5-(2-((2S)-1-(3-pyridinylacetyl)-2-pyrrolidinyl)-1H-imidazol-5-yl)-2-pyrimidinyl)phenyl)-1H-imidazol-2-yl)-1-pyrrolidinyl)ethyl)car bamate]	0.001 to 0.999
O=C([C@@H](c1ccccc1)N1CCCCC1)N1CCC[C@H]1c1ncc(-c2ccc(-c3ncc(-c4cnc([C@@H]5CCCN5C(=O)[C@@H](c5ccccc5)N5CCCCC5)[nH]4)cn3)cc2)[nH]1 [Example 152j-5, 5-(2-((2S)-1-((2R)-2-phenyl-2-(1-piperidinyl)acetyl)-2-pyrrolidinyl)-1H-imidazol-5-yl)-2-(4-(2-((2S)-1-((2R)-2-phenyl-2-(1-piperidinyl)acetyl)-2-pyrrolidinyl)-1H-imidazol-4-yl)phenyl)pyrimidine]	0.001 to 0.999
